{
  "source": "patent US12662705B2",
  "about": "“Interferon pathway genes regulate and predict efficacy of immunotherapy” (THE TRUSTEES OF THE UNIVERSITY OF PENNSYLVANIA, priority 2018, dated 2026)",
  "key": {"JAK1": {"target": "JAK1 (Homo sapiens, UniProt P23458)", "sequence (P23458 whole entry)": "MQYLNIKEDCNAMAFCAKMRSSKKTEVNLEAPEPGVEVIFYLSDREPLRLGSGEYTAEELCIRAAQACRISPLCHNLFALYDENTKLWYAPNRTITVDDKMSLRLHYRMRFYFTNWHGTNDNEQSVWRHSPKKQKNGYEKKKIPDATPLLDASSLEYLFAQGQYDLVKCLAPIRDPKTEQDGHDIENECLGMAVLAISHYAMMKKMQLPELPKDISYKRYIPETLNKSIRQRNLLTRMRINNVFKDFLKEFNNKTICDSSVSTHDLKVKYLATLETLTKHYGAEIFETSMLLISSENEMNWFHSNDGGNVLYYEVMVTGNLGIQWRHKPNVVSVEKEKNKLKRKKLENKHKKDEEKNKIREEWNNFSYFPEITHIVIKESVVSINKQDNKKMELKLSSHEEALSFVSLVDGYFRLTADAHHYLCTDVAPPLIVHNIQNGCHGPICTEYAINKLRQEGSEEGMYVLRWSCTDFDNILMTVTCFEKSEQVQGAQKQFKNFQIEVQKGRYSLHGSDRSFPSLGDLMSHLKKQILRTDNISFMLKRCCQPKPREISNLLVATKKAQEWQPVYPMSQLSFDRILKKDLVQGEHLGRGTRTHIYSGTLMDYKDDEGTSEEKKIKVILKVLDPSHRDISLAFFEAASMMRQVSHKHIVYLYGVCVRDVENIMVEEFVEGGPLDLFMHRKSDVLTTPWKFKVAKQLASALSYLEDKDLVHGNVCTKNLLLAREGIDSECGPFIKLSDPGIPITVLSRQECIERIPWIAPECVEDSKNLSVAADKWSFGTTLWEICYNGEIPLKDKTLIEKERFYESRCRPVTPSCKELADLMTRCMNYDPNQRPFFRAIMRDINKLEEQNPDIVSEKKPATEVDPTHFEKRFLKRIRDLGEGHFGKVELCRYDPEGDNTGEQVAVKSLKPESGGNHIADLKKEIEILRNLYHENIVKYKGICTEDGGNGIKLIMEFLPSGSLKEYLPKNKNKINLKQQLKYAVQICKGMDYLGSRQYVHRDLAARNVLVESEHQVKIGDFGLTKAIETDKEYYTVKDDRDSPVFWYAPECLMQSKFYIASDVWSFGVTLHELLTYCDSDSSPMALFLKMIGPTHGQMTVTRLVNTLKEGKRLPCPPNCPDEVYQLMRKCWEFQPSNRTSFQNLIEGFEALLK", "conditions": "read-out: half maximal inhibitory concentration [IC50]; cited from earlier work"}, "[1]": {"conditions": "total daily dose 1200 mg; cited from earlier work"}, "[2]": {"tested_on": "IFNGR knockout Res 499 tumors", "assay": "In vivo cytokine rescue studies in CD8 T cell-depleted mice", "set-up": "species or system mouse", "conditions": "direct intratumoral injection", "description": "In vivo cytokine rescue studies: All mice were pre-treated with anti-CD8 two days before tumor injection. Either 1 μg IFNg or 100 ng CXCL10 was mixed in the PBS/tumor cell suspension prior to injection of the tumor. Mice then continued receiving 500-1000 ng IFNG or 100 ng CXCL10 intra/peritumorally every 3 days post-tumor implantation. For flow cytometry experiments, mice were harvested at day 13 to examine the effects of cytokine addback on immune recruitment in the absence of CD8 T cells. For survival experiments, intra/peritumoral injections continued every 3 days for the remainder of the experiment."}, "[3]": {"tested_on": "PD-L1 positive advanced NSCLC", "conditions": "cited from earlier work"}},
  "note": "“Also recorded” adds a separate entry of the source.",
  "data": [
    {"compound": "N#CCC1(n2cc(-c3ncnc4[nH]ccc34)cn2)CN(C2CCN(C(=O)c3ccnc(C(F)(F)F)c3F)CC2)C1", "note": "[Itacitinib]", "values": [
      {"measurement": "IC50", "setting": "JAK1", "value": 3.6, "unit": "nM"},
      {"measurement": "adverse events at highest total daily dose", "setting": "[1]", "value": "no adverse events"}
    ]},
    {"compound": "CXCL10: IFNG-regulated CXCR3 ligand chemokine injected intra/peritumorally", "values": [
      {"measurement": "rescue of the decrease in NK/ILC frequency after CD8 T cell depletion", "setting": "[2]", "value": "partially rescue"}
    ]},
    {"compound": "Pembrolizumab: humanized monoclonal antibody of the IgG4/kappa isotype blocking the interaction between PD-1 and its ligands", "values": [
      {"measurement": "overall and progression free survival versus platinum doublet chemotherapy", "setting": "[3]; PD-L1 expression greater than or equal to 50%", "value": "superior overall and progression free survival; also recorded: improve overall survival and progression free survival"},
      {"measurement": "response rate", "setting": "[3]; first line NSCLC, tumors expressing high level of PD-L1 (>50%)", "value": 44.8, "unit": "%"},
      {"measurement": "ORR", "setting": "[3]; untreated PD-L1 positive advanced NSCLC", "value": 45, "unit": "%"}
    ]}
  ]
}
